Test results as given in patent US20210269479A1, “USE OF CY[…] FOR TREATING CANCER” (Hepion Pharmaceuticals, Inc., priority 2020, published 2021).

Test system: human precision cut liver slices (PCLS)
Assay: RNA-Seq of PCLS, Nonstimulation Protocol (Non-stimulated + CRV vs Non-stimulated + Vehicle)
Assay type: cell-based
Procedure: PCLS were obtained from 5 human donors who underwent resection of liver cancer. Replicate slices were collected from healthy margins of the resections and cultured for 4 or 6 days depending on the experimental protocol. In the Nonstimulation Protocol slices were cultured for 6 days and treated for the entire period with DMSO vehicle or 5 μM CRV431. In the Stimulation Protocol slices were rested for 1 day and then administered the cytokines, TGFβ and PDGF-BB, for 3 days to stimulate inflammation and fibrosis. DMSO vehicle, CRV431 (1 and 5 μM), Alk5i (10 μM), obeticholic acid (5 μM), elafibranor (5 μM), resmetirom (5 μM), and Aramchol (5 μM) were administered individually as drug treatments in the Stimulation Protocol concurrent with TGFβ+PDGF-BB. Culture medium treatments were replaced daily.
(d) Gene expression by RNA-Seq. RNA sequencing of the complete transcriptome (30 million reads per sample) was conducted on vehicle and 5 μM CRV431 treatment groups from 3 donors both from the Nonstimulation and Stimulation Protocols. Data were analyzed by bioinformatics software programs to identify genes that were differentially expressed between vehicle and CRV431 treatments.
For the evaluation done for (d), 12 samples corresponding to 3 different donor slides which underwent 4 different treatments were studied. the comparisons carried out in this analysis are: (1) TGFb/PDGF+CRV vs TGFb/PDGF+Vehicle (V), and (2) Non-stimulated+CRV vs Non-stimulated+Vehicle.
Heatmaps were generated by plotting significant differently expressed genes for the comparison Non-stimulated+CRV and Non-stimulated+Vehicle (p-adjust<0.05, log fold change>0.5). First, the heatmap with the samples grouped by group (FIG. 7A) is shown in order to observe the different expression pattern present within the group (blue=vehicle; red=CRV). Then, the same significant genes arweree plotted into a heatmap (FIG. 7B), but the samples are now plotted grouped by donor in order to observe the differences between donors (blue=vehicle; red=CRV).
Significant differently expressed genes that were identified in the comparison Non-stimulated+CRV and Non-stimulated+Vehicle ([…], log fold change>0.5) are provided in Table 3. The fold changes shown are relative to the treatment CRV.
Nonstimulated+CRV431 vs Nonstimulated+Vehicle were then compared by donor. As shown in the PCA, there was a strong effect of the donor. Therefore, the analysis was repeated as in the previous comparison. […] In other words, there were at least 300 copies more in the treatment CRV than in the vehicle. After doing this selection individually for each donor, a venn diagram was plotted showing the overlapping between all three donors. […] So, there are at least 300 copies less in the treated group compared to the vehicle. After doing the selection individually for each donor, a venn diagram was plotted showing the overlapping between all three donors.

[1] = Non-stimulated + CRV vs Non-stimulated + Vehicle, 5 μM
[2] = absence of TGFβ+PDGF-BB, all donors

CC[C@@H]1NC(=O)[C@H]([C@H](O)[C@H](C)CCCCCCNC(C)=O)N(C)C(=O)[C@H](C(C)C)N(C)C(=O)[C@H](CC(C)C)N(C)C(=O)[C@H](CC(C)C)N(C)C(=O)[C@@H](C)NC(=O)[C@H](C)NC(=O)[C@H](CC(C)C)N(C)C(=O)[C@H](C(C)C)NC(=O)[C@H](CC(C)C)N(C)C(=O)[C@@H](C)N(C)C1=O [CRV431]
log2FoldChange, gene AC099668.1 [1]: 1.056 | log2FoldChange, gene ACOT9 [1]: 0.543 | log2FoldChange, gene ADGRD1 [1]: −1.126 | log2FoldChange, gene AFG1L [1]: 1.327 | log2FoldChange, gene AGT [1]: −0.627 | log2FoldChange, gene AKAP10 [1]: −1.249 | log2FoldChange, gene ALPK3 [1]: −0.621 | log2FoldChange, gene AP000347.1 [1]: 1.809 | log2FoldChange, gene AP003119.3 [1]: −0.67 | log2FoldChange, gene APBA1 [1]: −1.158 | log2FoldChange, gene AREG [1]: 1.034 | log2FoldChange, gene ARVCF [1]: −0.609 | log2FoldChange, gene C4B [1]: −0.506 | log2FoldChange, gene CACUL1 [1]: −0.94 | log2FoldChange, gene CCDC149 [1]: 0.76 | log2FoldChange, gene CCNK [1]: 0.545 | log2FoldChange, gene CD5L [1]: 1.675 | log2FoldChange, gene CD180 [1]: 1.051 | log2FoldChange, gene CDH11 [1]: −0.915 | log2FoldChange, gene COL27A1 [1]: −0.545 | log2FoldChange, gene CXCL5 [1]: 0.663 | log2FoldChange, gene CXCL12 [1]: 0.623 | log2FoldChange, gene CYP3A4 [1]: −2.313 | log2FoldChange, gene CYP24A1 [1]: −1.499 | log2FoldChange, gene DAAM2 [1]: 1.498 | log2FoldChange, gene DANCR [1]: 0.693 | log2FoldChange, gene DDX60 [1]: −0.739 | log2FoldChange, gene DGKD [1]: −0.85 | log2FoldChange, gene DKK1 [1]: 1.939 | log2FoldChange, gene DNAJB9 [1]: 0.721 | log2FoldChange, gene DUS3L [1]: 0.745 | log2FoldChange, gene ESM1 [1]: −1.157 | log2FoldChange, gene FANCI [1]: −1.319 | log2FoldChange, gene FSTL1 [1]: −0.595 | log2FoldChange, gene GDPD5 [1]: −0.606 | log2FoldChange, gene GEM [1]: −0.975 | log2FoldChange, gene GMPPA [1]: 0.768 | log2FoldChange, gene GMPPB [1]: 0.715 | log2FoldChange, gene GOLGA8A [1]: −0.669 | log2FoldChange, gene GYG1 [1]: 0.94 | log2FoldChange, gene HID1 [1]: 0.716 | log2FoldChange, gene HLA-F [1]: −0.727 | log2FoldChange, gene HM13 [1]: 0.528 | log2FoldChange, gene HOOK1 [1]: −0.998 | log2FoldChange, gene IFI6 [1]: −1.273 | log2FoldChange, gene IFI44L [1]: −2.254 | log2FoldChange, gene IFIT2 [1]: −0.812 | log2FoldChange, gene ISLR [1]: −0.815 | log2FoldChange, gene KAT14 [1]: 0.874 | log2FoldChange, gene KIAA0513 [1]: −0.98 | log2FoldChange, gene KRT7 [1]: 0.563 | log2FoldChange, gene KRT81 [1]: 1.137 | log2FoldChange, gene L3MBTL1 [1]: −2.03 | log2FoldChange, gene LGALS3BP [1]: −0.556 | log2FoldChange, gene LILRB4 [1]: 0.909 | log2FoldChange, gene LILRB5 [1]: 1.075 | log2FoldChange, gene MANF [1]: 0.682 | log2FoldChange, gene MEG3 [1]: −0.682 | log2FoldChange, gene MIR194-2HG [1]: −2.973 | log2FoldChange, gene MLLT10 [1]: −1.19 | log2FoldChange, gene MPEG1 [1]: 0.584 | log2FoldChange, gene MS4A4A [1]: 0.735 | log2FoldChange, gene MT-CO1 [1]: −1.083 | log2FoldChange, gene MTCO1P12 [1]: −1.183 | log2FoldChange, gene NCOA3 [1]: −1.438 | log2FoldChange, gene NOTCH3 [1]: −0.564 | log2FoldChange, gene NREP [1]: −0.638 | log2FoldChange, gene NUCB2 [1]: 0.851 | log2FoldChange, gene NUGGC [1]: 1.136 | log2FoldChange, gene NUMA1 [1]: −0.537 | log2FoldChange, gene PALM2-AKAP2 [1]: −1.035 | log2FoldChange, gene PAN2 [1]: 0.742 | log2FoldChange, gene PDE4C [1]: −0.669 | log2FoldChange, gene PDZD2 [1]: −1.468 | log2FoldChange, gene PEG10 [1]: 1.463 | log2FoldChange, gene PFKFB3 [1]: −0.545 | log2FoldChange, gene PGM3 [1]: 0.751 | log2FoldChange, gene PLTP [1]: −0.584 | log2FoldChange, gene PLXNA2 [1]: 1.719 | log2FoldChange, gene POU2F2 [1]: 2.856 | log2FoldChange, gene R3HDM2 [1]: −0.678 | log2FoldChange, gene RAD51D [1]: 1.387 | log2FoldChange, gene RARRES2 [1]: −0.766 | log2FoldChange, gene RFX1 [1]: −1.495 | log2FoldChange, gene SCRIB [1]: 0.661 | log2FoldChange, gene SEC11C [1]: 0.844 | log2FoldChange, gene SEC24D [1]: 0.58 | log2FoldChange, gene SEC61B [1]: 0.602 | log2FoldChange, gene SELL [1]: 2.035 | log2FoldChange, gene SERPINB2 [1]: 1.255 | log2FoldChange, gene SIPA1L3 [1]: −0.652 | log2FoldChange, gene SKI [1]: −0.931 | log2FoldChange, gene SLC2A1 [1]: −0.635 | log2FoldChange, gene SLC29A1 [1]: −0.53 | log2FoldChange, gene SNHG3 [1]: 0.665 | log2FoldChange, gene SOWAHC [1]: −0.601 | log2FoldChange, gene SPCS3 [1]: 0.715 | log2FoldChange, gene SRGAP2B [1]: −0.729 | log2FoldChange, gene SSR4 [1]: 0.564 | log2FoldChange, gene STX16 [1]: 0.577 | log2FoldChange, gene SYNGAP1 [1]: −1.718 | log2FoldChange, gene SYNRG [1]: −0.74 | log2FoldChange, gene TMEM154 [1]: −1.351 | log2FoldChange, gene TNFSF14 [1]: −0.681 | log2FoldChange, gene TRPV6 [1]: 0.83 | log2FoldChange, gene TTLL3 [1]: −0.579 | log2FoldChange, gene UHRF2 [1]: −0.778 | log2FoldChange, gene UNKL [1]: −0.916 | log2FoldChange, gene WNK1 [1]: −0.698 | log2FoldChange, gene XAF1 [1]: −0.725 | fold change in RNA, DKK1 [2]: +3.8 fold | fold change in RNA, ESM1 [2]: −2.2 fold | fold change in RNA, IFI44L [2]: −4.8 fold | fold change in RNA, NCOA3 [2]: −2.7 fold | fold change in RNA, mIR-194-2 [2]: −7.9 fold
